The values below come from patent publication US9034866B2 (Genentech, Inc., priority 2012, dated 2015).

Bounds are passed on as bounds.

Chain of nuclear factor-kappa B (NF-kB)-inducing kinase (NIK) (Q99558 whole entry): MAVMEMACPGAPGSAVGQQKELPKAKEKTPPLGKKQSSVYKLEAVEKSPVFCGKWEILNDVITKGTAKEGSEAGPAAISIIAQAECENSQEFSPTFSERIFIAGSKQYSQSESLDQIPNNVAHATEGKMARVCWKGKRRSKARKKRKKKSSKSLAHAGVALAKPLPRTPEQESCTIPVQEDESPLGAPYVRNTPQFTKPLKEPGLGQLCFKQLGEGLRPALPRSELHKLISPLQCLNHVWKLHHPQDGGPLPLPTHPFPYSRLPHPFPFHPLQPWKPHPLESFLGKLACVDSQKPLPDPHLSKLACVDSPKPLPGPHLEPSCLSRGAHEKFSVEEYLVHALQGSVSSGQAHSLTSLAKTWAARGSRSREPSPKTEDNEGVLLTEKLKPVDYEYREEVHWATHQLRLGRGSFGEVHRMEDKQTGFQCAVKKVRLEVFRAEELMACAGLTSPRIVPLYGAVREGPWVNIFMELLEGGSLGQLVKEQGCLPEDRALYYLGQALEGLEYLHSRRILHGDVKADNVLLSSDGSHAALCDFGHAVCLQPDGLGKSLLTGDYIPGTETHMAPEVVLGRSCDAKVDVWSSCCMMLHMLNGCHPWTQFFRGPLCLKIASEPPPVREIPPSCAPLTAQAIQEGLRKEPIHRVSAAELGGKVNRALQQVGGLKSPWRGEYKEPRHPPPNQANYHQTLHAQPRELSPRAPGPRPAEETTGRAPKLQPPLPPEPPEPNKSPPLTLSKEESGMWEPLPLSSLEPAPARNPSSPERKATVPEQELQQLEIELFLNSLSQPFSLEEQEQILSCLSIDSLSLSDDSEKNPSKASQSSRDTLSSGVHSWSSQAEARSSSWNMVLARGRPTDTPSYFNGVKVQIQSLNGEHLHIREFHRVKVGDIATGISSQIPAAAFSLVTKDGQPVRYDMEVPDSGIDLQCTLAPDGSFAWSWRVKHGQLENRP

The assay addresses nuclear factor-kappa B (NF-kB)-inducing kinase (NIK) (Homo sapiens (Human), UniProt Q99558). As to the kind of experiment: NIK Enzyme Inhibition Assay (Transcreener ADP fluorescence polarization). In kind it is biochemical. The conditions noted are these: purified NIK 0.2-1 nM, 10 uM ATP, Morrison's quadratic equation; read-out: NIK ADP-FP (Ki uM). The procedure: NIK Enzyme Inhibition Assay: The ability of the nuclear factor-kappa B (NF-kB)-inducing kinase (NIK) to catalyze the hydrolysis of adenosine-5′-triphosphate (ATP) was monitored using the Transcreener ADP (adenosine-5′-diphosphate) assay (BellBrook Labs). Purified NIK (0.2-1 nM) derived from a baculovirus-infected insect cell expression system was incubated with test compounds for 1-3.5 hours in 50 mM 2-[4-(2-hydroxyethyl)piperazin-1-yl]ethanesulfonic acid buffer (pH 7.2) containing 10 mM MgCl2, 2 mM dithiothreitol, 10 uM ATP, 0.01% Triton X-100, 0.1% gamma-globulins from bovine blood, 1% dimethylsulfoxide (DMSO), 12 ug/mL ADP antibody and 4 nM ADP-AlexaFluor® 633 tracer. Reactions were quenched by the addition of 20 mM 2,2′,2″,2′″-(ethane-1,2-diyldinitrilo)tetraacetic acid and 0.01% Brij 35. The tracer bound to the antibody was displaced by the ADP generated during the NIK reaction, which causes a decrease in fluorescence polarization that was measured by laser excitation at 633 nm with a Fluorescence Correlation Spectroscopy Plus reader (Evotec AG).
For orientation: Polarisation of emitted light reports the rotation of a fluorescent probe.
As a reminder, the Ki is the dissociation constant of the complex between target and ligand, obtained from inhibition or displacement. Take `CC(C)(O)C#Cc1cc2c(cc1F)OCCn1c-2nc(C(N)=O)c1C(=O)NC1CN2CCC1CC2` (racemic): the Ki was determined as 0.453 µM.

For the compound `CC(C)(O)C#Cc1ccc2c(c1)-c1nc(C(N)=O)sc1C(CC(N)=O)CO2` (racemic) [Example 49], the Ki stood at 0.023 µM.

As to `CN(C)C(=O)C(C)(O)C#Cc1cc2c(cc1F)OCCn1cc(C(N)=O)nc1-2` (racemic) [Example 51], the Ki was 0.721 µM.

Take `CC(O)(C#Cc1cc2c(cc1F)OCCn1cc(C(N)=O)nc1-2)c1ccccn1` (racemic) [Example 54]: the inhibitory constant (Ki) was 0.024 µM.

For `CC(C)(O)C#Cc1cc2c(cc1F)OCCn1c-2nc(C(N)=O)c1C(=O)NC1COC1` (racemic) [Example 59], the inhibition constant Ki turned out to be 0.006 µM.

On to `CC(C)(O)C#Cc1cc2c(cc1F)OCCn1c-2nc(C(N)=O)c1C(=O)NC(C)(C)C#N` (racemic) [Example 61], for which the Ki worked out at 0.105 µM.

As to `Cc1cccnc1C(C)(O)C#Cc1cc2c(cc1F)OCCn1cc(C(N)=O)nc1-2` (racemic) [Example 62], the inhibitory constant (Ki) was greater than 5 µM.

Take `CC(O)(C#Cc1cc2c(cc1F)OCCn1cc(C(N)=O)nc1-2)C1(C)CC1` (racemic) [Example 64]: the Ki was greater than 5 µM.

For the compound `CC(C)(O)C#Cc1cc2c(cc1F)OCCn1c-2nc(C(N)=O)c1C(=O)NCCN1CCCC1` (racemic) [Example 67], the Ki was determined as 0.048 µM.

Regarding `CN1CCC(CNC(=O)c2c(C(N)=O)nc3n2CCOc2cc(F)c(C#CC(C)(C)O)cc2-3)C1` (racemic) [Example 68], the inhibition constant (Ki) is 0.879 µM.

Take `COCC1(CNC(=O)c2c(C(N)=O)nc3n2CCOc2cc(F)c(C#CC(C)(C)O)cc2-3)CC1` (racemic) [Example 69]: the Ki is 0.041 µM.

As for `CC(O)(C#Cc1cc2c(cc1F)OCCn1cc(C(N)=O)nc1-2)c1nc(CC#N)cs1` (racemic) [Example 77], the Ki came to 1.2 µM.

Turning to `CC(O)(C#Cc1cc2c(cc1F)OCCn1cc(C(N)=O)nc1-2)C(=O)N1CC(F)(F)C1` (racemic) [Example 156], the Ki came to 0.155 µM.

As to `CC(O)(C#Cc1cc2c(cc1F)C1CC(C1)n1cc(C(N)=O)nc1-2)c1ccccn1` (racemic) [Example 160], the Ki turned out to be 0.0068 µM.

Turning to `CC(C)(O)C#Cc1cc2c(cc1F)OCCn1c-2nc(C(N)=O)c1C(O)c1cc(F)cc(F)c1` (racemic) [Example 161], the inhibition constant Ki is 0.0072 µM.

For the compound `CC(C)(O)C#Cc1cc2c(cc1Cl)OCCn1cc(C(N)=O)nc1-2` (racemic) [Example 186], the Ki is greater than 5 µM.

For the compound `CC(C)(O)C#Cc1cc2c(cc1F)OCCn1c-2nc(C(N)=O)c1-c1nc(C2CC2)no1` (racemic) [Example 188], the Ki worked out at 0.19 µM.

For `CC(C)(O)C#Cc1ccc2c(c1)-c1nc(C(N)=O)c(C(F)(F)F)n1CCO2` (racemic) [Example 198], the inhibition constant Ki turned out to be 0.54 µM.

Regarding `CC(C)(O)C#Cc1cc2c(cc1F)C1CC(C1)n1c-2nc(C(N)=O)c1-c1nc(-c2cccnc2)n[nH]1` (racemic) [Example 207], the inhibition constant (Ki) came to 0.00077 µM.

On to `Cc1nc(C(C)(O)C#Cc2cc3c(cc2Cl)OCCn2cc(C(N)=O)nc2-3)no1` (racemic) [Example 231], for which the inhibitory constant (Ki) was greater than 5 µM.

On to `COCCN(C)Cc1c(C(N)=O)nc2n1C1CC(C1)c1cc(F)c(C#CC(C)(C)O)cc1-2` (racemic) [Example 239], for which the Ki is 0.23 µM.

On to `NC(=O)c1cn2c(n1)-c1cc(C#CC3(O)CCCC3)ccc1OCC2` [Example 1, 9-(1-hydroxy-cyclopentylethynyl)-4,5-di-hydro-6-oxa-1,3a-diaza-benzo[e]azulene-2-carboxylic acid amide], for which the Ki was 0.052 µM.

With `CC(C)(O)C#Cc1ccc2c(c1)-c1nc(C(N)=O)cn1CCO2` [Example 2, 9-(3-hydroxy-3-methyl-but-1-ynyl)-4,5-dihydro-6-oxa-1,3a-diaza-benzo[e]azu-lene-2-carboxylic acid amide], the inhibition constant (Ki) was determined as 0.319 µM.

For `CC(C)(O)C#Cc1ccc2c(c1)-c1nc(C(N)=O)sc1CCO2` [Example 3, 9-(3-hydroxy-3-methyl-but-1-ynyl)-4,5-dihydro-6-oxa-3-thia-1-aza-benzo[e]azu-lene-2-carboxylic acid amide], the Ki turned out to be 0.033 µM.

As for `NC(=O)c1nc2c(s1)CCOc1ccc(C#CC3(O)CCCC3)cc1-2` [Example 4, 9-(1-hydroxy-cyclopentylethynyl)-4,5-di-hydro-6-oxa-3-thia-1-aza-benzo[e]azu-lene-2-carboxylic acid amide], the inhibition constant Ki worked out at 0.004 µM.

For the compound `CC(C)(O)C#Cc1cc2c(cc1F)OCCn1cc(C(N)=O)nc1-2` [Example 5, 8-fluoro-9-(3-hydroxy-3-methyl-but-1-ynyl)-4,5-dihydro-6-oxa-1,3a-diaza-ben-zo[e]azulene-2-carboxylic acid amide], the inhibition constant (Ki) was 0.034 µM.

Turning to `CC(C)(O)C#Cc1ccc2c(c1)-c1nc(C(N)=O)sc1C(=O)CO2` [Example 9, 9-(3-hydroxy-3-methyl-but-1-ynyl)-4-oxo-4,5-dihydro-6-oxa-3-thia-1-aza-benzo-[e]azulene-2-carboxylic acid amide], the inhibitory constant (Ki) is 0.216 µM.

Regarding `CN(C)C1COc2ccc(C#CC(C)(C)O)cc2-c2nc(C(N)=O)sc21` (stereo not shown) [Example 10, 4-dimethylamino-9-(3-hydroxy-3-meth-yl-but-1-ynyl)-4,5-dihydro-6-oxa-3-thia-1-aza-benzo[e]azulene-2-carboxylic acid amide], the Ki worked out at 0.096 µM.

As to `CC(C)(O)C#Cc1ccc2c(c1)-c1nc(C(N)=O)sc1C(N1CCOCC1)CO2` (stereo not shown) [Example 11, 9-(3-hydroxy-3-methyl-but-1-ynyl)-4-morpholin-4-yl-4,5-dihydro-6-oxa-3-thia-1-aza-benzo[e]azulene-2-carboxylic acid amide], the Ki amounted to 0.416 µM.

`CC(C)(O)C#Cc1ccc2c(c1)-c1nc(C(N)=O)sc1C(O)CO2` (stereo not shown) [Example 12, 4-hydroxy-9-(3-hydroxy-3-methyl-but-1-ynyl)-4,5-dihydro-6-oxa-3-thia-1-aza-benzo[e]azulene-2-carboxylic acid amide]: the Ki is 0.093 µM.

For `CC(O)(C#Cc1cc2c(cc1F)OCCn1cc(C(N)=O)nc1-2)c1cncnc1` (stereo not shown) [Example 14, 8-Fluoro-9-(3-hydroxy-3-pyrimidin-5-yl-but-1-ynyl)-4,5-dihydro-6-oxa-1,3a-diaza-benzo[e]azulene-2-carboxylic acid amide], the Ki stood at 0.864 µM.

As for `CC(O)(C#Cc1cc2c(cc1F)OCCn1cc(C(N)=O)nc1-2)c1cnccn1` (stereo not shown) [Example 15, 8-fluoro-9-(3-hydroxy-3-pyrazin-2-yl-but-1-ynyl)-4,5-dihydro-6-oxa-1,3a-diaza-benzo[e]azulene-2-carboxylic acid amide], the inhibitory constant (Ki) came out at 0.036 µM.

As to `CC(O)(C#Cc1cc2c(cc1F)OCCn1cc(C(N)=O)nc1-2)c1ncccn1` (stereo not shown) [Example 16, 8-fluoro-9-(3-hydroxy-3-pyrimidin-2-yl-but-1-ynyl)-4,5-dihydro-6-oxa-1,3a-diaza-benzo[e]azulene-2-carboxylic acid amide], the inhibition constant Ki was determined as 0.025 µM.

With `NC(=O)c1cn2c(n1)-c1cc(C#CC3(O)CCC3)c(F)cc1OCC2` [Example 17, 8-fluoro-9-(1-hydroxy-cyclobutylethynyl)-4,5-dihydro-6-oxa-1,3a-diaza-benzo[e]azulene-2-carboxylic acid amide], the inhibitory constant (Ki) turned out to be 0.01 µM.
